Results: ChEMBL document CHEMBL5584353, “Design, Synthesis, and Biological Evaluation of Potent EZH2/LSD1 Dual Inhibitors for Prostate Cancer” (J Med Chem, 2024)
Active and inactive are the calls of the source. The rule behind the calls is not given here.

Key:
LNCaP [1] = assay: Growth inhibition of human LNCaP cells incubated for 6 to 7 days by MTS assay; type: functional; details: time 6-7 day
[2] = target: T1, Amine oxidase [flavin-containing] A (Homo sapiens, UniProt P21397); assay: Inhibition of MAO-A (unknown origin)
T1 sequence (P21397 whole entry): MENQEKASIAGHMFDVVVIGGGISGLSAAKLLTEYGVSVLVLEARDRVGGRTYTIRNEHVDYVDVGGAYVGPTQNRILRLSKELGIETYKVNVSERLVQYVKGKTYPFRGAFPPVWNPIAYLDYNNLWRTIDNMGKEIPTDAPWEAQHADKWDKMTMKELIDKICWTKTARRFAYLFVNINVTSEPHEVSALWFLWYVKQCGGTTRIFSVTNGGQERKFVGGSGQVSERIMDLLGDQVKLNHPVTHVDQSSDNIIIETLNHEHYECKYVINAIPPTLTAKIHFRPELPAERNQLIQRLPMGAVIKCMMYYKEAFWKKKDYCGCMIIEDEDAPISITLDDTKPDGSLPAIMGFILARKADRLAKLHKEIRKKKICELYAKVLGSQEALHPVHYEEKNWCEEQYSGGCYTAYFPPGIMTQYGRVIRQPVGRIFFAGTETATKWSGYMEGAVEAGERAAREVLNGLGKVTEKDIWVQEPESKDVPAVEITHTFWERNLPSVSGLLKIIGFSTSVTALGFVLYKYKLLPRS

PC-3 [3] = assay: Growth inhibition of human PC-3 cells incubated for 6 to 7 days by MTS assay; type: functional; details: time 6-7 day
[4] = Inhibition of LSD2 (unknown origin); parameters: species or system Homo sapiens
CWR22R [5] = assay: Induction of apoptosis in human 22Rv1 cells at 10 uM incubated for 5 days by Annexin V-FITC/PI staining based flow cytometric analysis (reference value: 8.97 %); type: functional; details: time 5 day
CWR22R [6] = assay: Growth inhibition of human 22Rv1 cells incubated for 6 to 7 days by MTS assay; type: functional; details: time 6-7 day
[7] = target: T2, Lysine-specific histone demethylase 1A (Homo sapiens, UniProt O60341); assay: Inhibition of recombinant human LSD1 using Histone H3 as fluorometric substrate incubated for 30 mins by HRP based plate reader assay
[8] = target: Histone-lysine N-methyltransferase EZH2 (Homo sapiens) (UniProt Q15910); assay: Inhibition of EZH2 in human 22Rv1 cells assessed as downregulation of H3K27me3 expression at 10 uM incubated for 24 hrs by Western blotting analysis; type: cell-based
[9] = target: T2, Lysine-specific histone demethylase 1A; assay: Inhibition of LSD1 in human LNCaP cells assessed as upregulation of H3K9me2 expression at 10 uM incubated for 24 hrs by Western blotting analysis; type: cell-based
[10] = target: Histone-lysine N-methyltransferase EZH2 (Homo sapiens) (UniProt Q15910); assay: Inhibition of EZH2 in human LNCaP cells assessed as downregulation of H3K27me3 expression at 10 uM incubated for 24 hrs by Western blotting analysis; type: cell-based
[11] = target: T2, Lysine-specific histone demethylase 1A; assay: Inhibition of LSD1 in human 22Rv1 cells assessed as upregulation of H3K9me2 expression at 10 uM incubated for 24 hrs by Western blotting analysis; type: cell-based
LNCaP [12] = assay: Synergistic growth inhibition of human LNCaP cells incubated for 6 to 7 days in presence of ORY1001 by MTS assay; type: functional; details: time 6-7 day
PC-3 [13] = assay: Synergistic growth inhibition of human PC-3 cells incubated for 6 to 7 days in presence of ORY1001 by MTS assay; type: functional; details: time 6-7 day
LNCaP [14] = assay: Synergistic growth inhibition of human LNCaP cells incubated for 6 to 7 days in presence of TCP by MTS assay; type: functional; details: time 6-7 day
CWR22R [15] = assay: Synergistic antitumor activity against human 22Rv1 cells xenografted in BALB/c mouse assessed as tumor growth inhibition at 65 mg/kg,ip administrated daily for 31 days in presence of TCP relative to control; details: 22Rv1, 744 h, read-out: TGI
PC-3 [16] = assay: Synergistic growth inhibition of human PC-3 cells incubated for 6 to 7 days in presence of TCP by MTS assay; type: functional; details: time 6-7 day
CWR22R [17] = assay: Synergistic growth inhibition of human 22Rv1 cells incubated for 6 to 7 days in presence of ORY1001 by MTS assay; type: functional; details: time 6-7 day
CWR22R [18] = assay: Synergistic growth inhibition of human 22Rv1 cells incubated for 6 to 7 days in presence of TCP by MTS assay; type: functional; details: time 6-7 day
[19] = Toxicity in BALB/c mouse xenografted with human 22Rv1 cells assessed as change in body weight at 65 mg/kg,ip administrated daily for 31 days; type: organism-based, CWR22R; details: in vivo, 744 h, time 31 day
[20] = Toxicity in BALB/c mouse xenografted with human 22Rv1 cells assessed as change in body weight at 65 mg/kg,ip administrated daily for 31 days in presence of TCP; type: organism-based, CWR22R; details: in vivo, 744 h, time 31 day

Chain of Histone-lysine N-methyltransferase EZH2 (Homo sapiens) (Q15910 whole entry, looked up): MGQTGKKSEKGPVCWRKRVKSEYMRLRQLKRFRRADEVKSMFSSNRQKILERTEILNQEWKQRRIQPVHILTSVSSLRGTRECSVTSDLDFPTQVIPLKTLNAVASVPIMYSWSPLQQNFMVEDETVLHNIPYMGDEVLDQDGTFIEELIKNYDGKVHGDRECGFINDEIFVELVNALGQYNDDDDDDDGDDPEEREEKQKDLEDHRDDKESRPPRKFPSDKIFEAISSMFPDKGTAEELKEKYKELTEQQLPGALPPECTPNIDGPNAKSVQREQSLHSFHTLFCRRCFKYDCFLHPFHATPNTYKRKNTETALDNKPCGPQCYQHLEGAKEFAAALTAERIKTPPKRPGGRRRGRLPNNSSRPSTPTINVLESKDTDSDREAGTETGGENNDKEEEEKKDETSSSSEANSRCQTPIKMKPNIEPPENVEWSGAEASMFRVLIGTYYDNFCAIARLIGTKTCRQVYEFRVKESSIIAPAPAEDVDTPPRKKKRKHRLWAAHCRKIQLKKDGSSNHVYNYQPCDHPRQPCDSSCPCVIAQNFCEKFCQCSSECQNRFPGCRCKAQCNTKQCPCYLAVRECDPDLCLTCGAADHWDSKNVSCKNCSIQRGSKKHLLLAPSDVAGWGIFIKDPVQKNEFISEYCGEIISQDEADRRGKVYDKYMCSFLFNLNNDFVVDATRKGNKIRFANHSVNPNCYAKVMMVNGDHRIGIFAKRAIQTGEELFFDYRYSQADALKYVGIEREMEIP

SMILES	GI50 (LNCaP [1]) [µM]	GI50 (PC-3 [3]) [µM]	GI50 (CWR22R [6]) [µM]	IC50 [7] [µM]	also measured
NC1CCC(N[C@@H]2C[C@H]2c2ccccc2)CC1 (stereo partly drawn)	> 30	> 30	> 30	–	IC50 [2]: 0.51 µM; IC50 [4]: 24.5 µM; Activity (CWR22R [5]): 11.56%
CCN(c1cc(-c2ccc([C@@H]3C[C@H]3N(CC(=O)N3CCN(C(=O)OC(C)(C)C)CC3)C(=O)OC(C)(C)C)cc2)cc(C(=O)NCc2c(C)cc(C)[nH]c2=O)c1C)C1CCOCC1 (racemic)	6.49	> 30	13.1	> 3	–
CCN(c1cc(-c2ccc([C@@H]3C[C@H]3NCC3CCOCC3)cc2)cc(C(=O)NCc2c(C)cc(C)[nH]c2=O)c1C)C1CCOCC1 (racemic)	2.64	9.23	4.03	–	IC50 [2]: 2.05 µM; IC50 [4]: 43.7 µM
CCN(c1cc(-c2ccc([C@@H]3C[C@H]3NC(=O)OC(C)(C)C)cc2)cc(C(=O)NCc2c(C)cc(C)[nH]c2=O)c1C)C1CCOCC1 (racemic)	3.62	2.45	5.12	> 3	–
CCN(c1cc(-c2ccc([C@@H]3C[C@H]3N(Cc3ccccc3OC)C(=O)OC(C)(C)C)cc2)cc(C(=O)NCc2c(C)cc(C)[nH]c2=O)c1C)C1CCOCC1 (racemic)	16.9	> 30	16.7	> 3	–
CCN(c1cc(-c2ccc([C@@H]3C[C@H]3NC(=O)OC(C)(C)C)cc2)cc(C(=O)NCc2c(C)c(Br)c(C)[nH]c2=O)c1C)C1CCOCC1 (racemic)	24.1	5.08	> 30	–	inhibition [8]: inactive; inhibition [9]: Active; inhibition [10]: inactive; inhibition [11]: Active
CCN(c1cc(-c2ccc([C@@H]3C[C@H]3NCC3CC3)cc2)cc(C(=O)NCc2c(C)cc(C)[nH]c2=O)c1C)C1CCOCC1 (racemic)	13.8	> 30	10.4	–	–
CCN(c1cc(-c2ccc([C@@H]3C[C@H]3NC(=O)C(C)(C)C)cc2)cc(C(=O)NCc2c(C)cc(C)[nH]c2=O)c1C)C1CCOCC1 (racemic)	4.42	7.96	13.3	–	inhibition [9]: inactive; inhibition [11]: inactive
CCN(c1cc(-c2ccc([C@@H]3C[C@H]3N(CC(=O)N3CCOCC3)C(=O)OC(C)(C)C)cc2)cc(C(=O)NCc2c(C)cc(C)[nH]c2=O)c1C)C1CCOCC1 (racemic)	5.11	12.6	7.83	> 3	–
CCN(c1cc(-c2ccc([C@@H]3C[C@H]3NCc3ccccc3)cc2)cc(C(=O)NCc2c(C)cc(C)[nH]c2=O)c1C)C1CCOCC1 (racemic)	3.41	9.24	3.9	–	–
CCN(c1cc(-c2ccc([C@@H]3C[C@H]3N)cc2)cc(C(=O)NCc2c(C)cc(C)[nH]c2=O)c1C)C1CCOCC1 (racemic)	6.83	23.9	16.3	–	–
CCN(c1cc(-c2ccc([C@@H]3C[C@H]3NC3CCCCC3)cc2)cc(C(=O)NCc2c(C)cc(C)[nH]c2=O)c1C)C1CCOCC1 (racemic)	5.34	12	4.61	–	–
CCN(c1cc(-c2cccc([C@@H]3C[C@H]3NCC3CCOCC3)c2)cc(C(=O)NCc2c(C)cc(C)[nH]c2=O)c1C)C1CCOCC1 (racemic)	5.7	10.2	4.81	–	–
CCN(c1cc(-c2ccc([C@@H]3C[C@H]3NCc3ccccc3F)cc2)cc(C(=O)NCc2c(C)cc(C)[nH]c2=O)c1C)C1CCOCC1 (racemic)	5.39	> 30	27.4	–	–
CCN(c1cc(-c2ccc([C@@H]3C[C@H]3N(C(=O)OC(C)(C)C)C3CCCCC3)cc2)cc(C(=O)NCc2c(C)cc(C)[nH]c2=O)c1C)C1CCOCC1 (racemic)	5.02	18.1	24.3	> 3	–
CCN(c1cc(-c2ccc([C@@H]3C[C@H]3NCC(=O)N3CCNCC3)cc2)cc(C(=O)NCc2c(C)cc(C)[nH]c2=O)c1C)C1CCOCC1 (racemic)	4.09	> 30	18.9	–	–
CCN(c1cc(-c2cccc([C@H]3C[C@@H]3NC(=O)OC(C)(C)C)c2)cc(C(=O)NCc2c(C)cc(C)[nH]c2=O)c1C)C1CCOCC1 (racemic)	7.22	19.3	21.7	> 3	–
CCN(c1cc(-c2ccc([C@@H]3C[C@H]3N(Cc3ccccc3F)C(=O)OC(C)(C)C)cc2)cc(C(=O)NCc2c(C)cc(C)[nH]c2=O)c1C)C1CCOCC1 (racemic)	5.19	5.13	7.13	> 3	–
CCN(c1cc(-c2ccc([C@@H]3C[C@H]3N(C(=O)OC(C)(C)C)C3CCOCC3)cc2)cc(C(=O)NCc2c(C)cc(C)[nH]c2=O)c1C)C1CCOCC1 (racemic)	3.4	3.27	8.86	> 3	–
CCN(c1cc(-c2cccc([C@H]3C[C@@H]3N(CC3CCOCC3)C(=O)OC(C)(C)C)c2)cc(C(=O)NCc2c(C)cc(C)[nH]c2=O)c1C)C1CCOCC1 (racemic)	3.38	3.68	6.05	> 3	–
CCN(c1cc(-c2cccc([C@@H]3C[C@H]3N)c2)cc(C(=O)NCc2c(C)cc(C)[nH]c2=O)c1C)C1CCOCC1 (racemic)	12.4	13.5	26.2	> 3	–
CCN(c1cc(-c2ccc([C@@H]3C[C@H]3NC3CCOCC3)cc2)cc(C(=O)NCc2c(C)cc(C)[nH]c2=O)c1C)C1CCOCC1 (racemic)	3.42	12.7	4.39	–	–
CCN(c1cc(-c2cccc([C@@H]3C[C@H]3NC3CCOCC3)c2)cc(C(=O)NCc2c(C)cc(C)[nH]c2=O)c1C)C1CCOCC1 (racemic)	21	> 30	10.1	–	–
CCN(c1cc(-c2ccc([C@@H]3C[C@H]3NCC(=O)N3CCOCC3)cc2)cc(C(=O)NCc2c(C)cc(C)[nH]c2=O)c1C)C1CCOCC1 (racemic)	6.01	> 30	19.7	–	–
CCN(c1cc(-c2ccc([C@@H]3C[C@H]3NCc3ccccc3OC)cc2)cc(C(=O)NCc2c(C)cc(C)[nH]c2=O)c1C)C1CCOCC1 (racemic)	5.45	6.41	4.87	–	–
CCN(c1cc(-c2ccc([C@@H]3C[C@H]3N(Cc3ccccc3)C(=O)OC(C)(C)C)cc2)cc(C(=O)NCc2c(C)cc(C)[nH]c2=O)c1C)C1CCOCC1 (racemic)	13.8	> 30	> 30	> 3	–
CCN(c1cc(-c2cccc([C@H]3C[C@@H]3N(C(=O)OC(C)(C)C)C3CCOCC3)c2)cc(C(=O)NCc2c(C)cc(C)[nH]c2=O)c1C)C1CCOCC1 (racemic)	3.47	3.87	6.92	> 3	–
CCN(c1cc(-c2ccc([C@@H]3C[C@H]3N(CC3CC3)C(=O)OC(C)(C)C)cc2)cc(C(=O)NCc2c(C)cc(C)[nH]c2=O)c1C)C1CCOCC1 (racemic)	9.73	> 30	18.8	> 3	–
N[C@@H]1C[C@H]1c1ccccc1.N[C@H]1C[C@@H]1c1ccccc1 (racemic) [TRANYLCYPROMINE]	> 30	> 30	–	–	–
CCN(c1cc(-c2ccc(CN3CCOCC3)cc2)cc(C(=O)NCc2c(C)cc(C)[nH]c2=O)c1C)C1CCOCC1 [TAZEMETOSTAT]	19.5	> 30	51.9	–	GI50 (LNCaP [12]): 12 µM; GI50 (PC-3 [13]): > 30 µM; GI50 (LNCaP [14]): 13 µM; inhibition in vivo at 65 mg/kg (CWR22R [15]): 28.8%; GI50 (PC-3 [16]): > 30 µM; GI50 (CWR22R [17]): > 30 µM; Activity (CWR22R [5]): 17.88%; GI50 (CWR22R [18]): > 30 µM; Activity [19]: Non-Toxic; Activity [20]: Non-Toxic
